Source: PMC11562961, “An activity-based probe for antimicrobial target DXP synthase, a thiamin diphosphate-dependent enzyme” (Frontiers in chemical biology, 2024)

Biological target: T1, 1-deoxy-D-xylulose 5-phosphate synthase (DXPS) (Escherichia coli, UniProt P77488)
T1 construct: gene dxs
T1 sequence (P77488 2-620): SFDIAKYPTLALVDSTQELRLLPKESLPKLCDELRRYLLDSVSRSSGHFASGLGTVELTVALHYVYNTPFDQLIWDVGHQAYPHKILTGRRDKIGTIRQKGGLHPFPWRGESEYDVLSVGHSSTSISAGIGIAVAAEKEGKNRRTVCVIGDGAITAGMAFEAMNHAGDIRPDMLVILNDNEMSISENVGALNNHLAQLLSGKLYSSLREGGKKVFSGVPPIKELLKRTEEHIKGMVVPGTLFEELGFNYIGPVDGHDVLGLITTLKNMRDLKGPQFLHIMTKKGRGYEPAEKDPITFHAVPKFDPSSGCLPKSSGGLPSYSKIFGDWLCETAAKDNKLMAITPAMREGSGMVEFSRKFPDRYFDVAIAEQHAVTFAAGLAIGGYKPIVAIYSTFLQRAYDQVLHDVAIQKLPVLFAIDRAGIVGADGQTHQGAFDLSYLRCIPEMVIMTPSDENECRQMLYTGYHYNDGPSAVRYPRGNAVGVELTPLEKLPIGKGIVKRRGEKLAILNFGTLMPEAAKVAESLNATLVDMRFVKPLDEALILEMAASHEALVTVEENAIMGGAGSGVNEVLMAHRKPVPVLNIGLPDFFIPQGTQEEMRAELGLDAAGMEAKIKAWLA
Experiment: DXPS-IspC coupled assay (Morrison Ki); also CD detection of the PLThDP adduct and photo-crosslink in-gel fluorescence labeling
Format: biochemical

## C#CCCC1(CCOP(=O)(O)C(C)=O)N=N1 [compound 1, ABP 1]
  Ki: 1600 ± 220 nM
